Results reported in patent US6703415B2, “Inhibitors of matrix metallaproteinases” (Wayne State University, priority 2000, dated 2004).
Read-outs that look alike come from different tables or passages of the source.

How the values were obtained:
MMP-9 [1] = target: T1, MMP-9 (Homo sapiens, UniProt P14780); experiment: biochemical
MMP-2 [2] = target: T2, MMP-2 (Homo sapiens, UniProt P08253); experiment: biochemical
T2 sequence (P08253 110-660): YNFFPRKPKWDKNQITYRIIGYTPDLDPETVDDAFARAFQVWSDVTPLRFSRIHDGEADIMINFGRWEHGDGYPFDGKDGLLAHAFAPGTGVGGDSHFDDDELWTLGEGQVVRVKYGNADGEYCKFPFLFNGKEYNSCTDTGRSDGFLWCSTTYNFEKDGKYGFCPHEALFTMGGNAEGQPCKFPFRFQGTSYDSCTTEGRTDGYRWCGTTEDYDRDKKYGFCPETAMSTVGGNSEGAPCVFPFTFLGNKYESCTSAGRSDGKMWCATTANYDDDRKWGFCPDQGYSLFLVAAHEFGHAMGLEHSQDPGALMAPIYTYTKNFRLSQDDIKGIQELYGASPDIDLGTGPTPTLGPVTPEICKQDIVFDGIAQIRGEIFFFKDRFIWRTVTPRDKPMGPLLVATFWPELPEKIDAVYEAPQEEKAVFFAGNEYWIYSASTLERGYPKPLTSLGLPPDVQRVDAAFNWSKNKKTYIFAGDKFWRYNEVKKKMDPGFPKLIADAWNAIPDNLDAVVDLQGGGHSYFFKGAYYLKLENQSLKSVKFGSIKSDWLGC

MMP-7 = target: T3, MMP-7 (Homo sapiens, UniProt P09237); experiment: Fluorescence enzymatic activity assay / kinetic analyses, MMP-7; format: biochemical; settings: NI = not inhibiting even at 130-330 μM
T3 sequence (P09237 95-267): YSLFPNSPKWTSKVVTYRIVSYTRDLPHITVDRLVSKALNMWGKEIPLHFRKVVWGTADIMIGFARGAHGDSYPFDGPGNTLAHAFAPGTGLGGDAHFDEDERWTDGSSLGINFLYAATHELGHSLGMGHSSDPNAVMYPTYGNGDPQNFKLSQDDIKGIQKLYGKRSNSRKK
Description: The enzymatic activity of MMP-2, MMP-9, and MMP-7 was monitored with the fluorescence quenched substrate MOCAcPLGLA2pr(Dnp)-AR-NH2. Fluorescence was measured with a Photon Technology International (PTI) spectrofluorometer interfaced to a Pentium computer, equipped with the RatioMaster™ and FeliX™ hardware and software, respectively. The cuvette compartment was thermostated at 25.0° C. […] Fluorescence measurements were taken every 4 s. Less than 10% hydrolysis of the fluorogenic substrate was monitored, as described by Knight.

MMP-3 = target: T4, MMP-3 (Homo sapiens, UniProt P08254); experiment: Fluorescence enzymatic activity assay / kinetic analyses, stromelysin 1 (MMP-3); format: biochemical; settings: NI = not inhibiting even at 130-330 μM
T4 construct: gift of Dr. Paul Cannon, Center for Bone and Joint Research, Palo Alto, Calif

MMP-1 = target: T5, MMP-1 (Homo sapiens, UniProt P03956); experiment: Kinetic analyses, MMP-1; format: biochemical; settings: NI = not inhibiting even at 130-330 μM
T5 sequence (P03956 100-469): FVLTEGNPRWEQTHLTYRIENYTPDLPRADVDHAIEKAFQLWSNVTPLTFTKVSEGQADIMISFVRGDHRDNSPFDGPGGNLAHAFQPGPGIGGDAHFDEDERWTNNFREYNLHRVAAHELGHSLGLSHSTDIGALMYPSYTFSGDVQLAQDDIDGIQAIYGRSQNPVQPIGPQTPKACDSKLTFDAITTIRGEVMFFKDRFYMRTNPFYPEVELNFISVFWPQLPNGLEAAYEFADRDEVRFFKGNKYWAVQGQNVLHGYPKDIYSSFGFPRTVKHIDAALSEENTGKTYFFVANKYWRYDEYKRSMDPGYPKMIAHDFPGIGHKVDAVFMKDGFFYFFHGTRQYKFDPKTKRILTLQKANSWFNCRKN
Description: The progress curves were nonlinear least squares fitted to Equation 1 (Muller-Steffner, H. M., Malver, O., Hosie, L., Oppenheimer, N. J., and Schuber, F. J. Biol. Chem. 1992, 267, 9606-9611.):
Analysis for linear competitive inhibition was performed in the following manner. […] The fluorescence versus time traces were fitted by linear regression analysis using FeliX™. The initial rates were fitted to Equation 5 (Segel, I. H. in: Enzyme Kinetics, Wiley Inc., New York, 1975, pp. 104.):
The following buffers were used in experiments with enzymes: Buffer C (50 mM HEPES at pH 7.5, 150 mM NaCl, 5 mM CaCl2, 0.02% Brij-35); buffer R (50 mM HEPES at pH 7.5, 150 mM NaCl, 5 mM CaCl2, 0.01% Brij-35, and 1% v/v Me2SO) and buffer D (50 mM Tris at pH 7.5, 150 mM NaCl, 5 mM CaCl2, and 0.02% Brij-35).

MMP-2 [3] = target: T2, MMP-2; settings: high-affinity site for TIMPs, reported earlier (Olson et al. 1997); cited from earlier work
MMP-9 [4] = target: T1, MMP-9; settings: high-affinity site for TIMPs, reported earlier (Olson et al. 1997); cited from earlier work

T4 sequence (P08254 100-477): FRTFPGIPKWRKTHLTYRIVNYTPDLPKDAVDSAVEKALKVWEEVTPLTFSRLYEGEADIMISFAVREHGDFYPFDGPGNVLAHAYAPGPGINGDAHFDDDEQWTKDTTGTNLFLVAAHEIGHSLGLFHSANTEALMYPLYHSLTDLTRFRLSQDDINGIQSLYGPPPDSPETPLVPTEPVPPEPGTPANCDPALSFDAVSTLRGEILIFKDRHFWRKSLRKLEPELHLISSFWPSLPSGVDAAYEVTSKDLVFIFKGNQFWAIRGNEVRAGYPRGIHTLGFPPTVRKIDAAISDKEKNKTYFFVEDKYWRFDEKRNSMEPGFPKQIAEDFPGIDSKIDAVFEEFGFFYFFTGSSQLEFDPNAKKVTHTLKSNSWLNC
T1 sequence (P14780 107-707 limits assumed): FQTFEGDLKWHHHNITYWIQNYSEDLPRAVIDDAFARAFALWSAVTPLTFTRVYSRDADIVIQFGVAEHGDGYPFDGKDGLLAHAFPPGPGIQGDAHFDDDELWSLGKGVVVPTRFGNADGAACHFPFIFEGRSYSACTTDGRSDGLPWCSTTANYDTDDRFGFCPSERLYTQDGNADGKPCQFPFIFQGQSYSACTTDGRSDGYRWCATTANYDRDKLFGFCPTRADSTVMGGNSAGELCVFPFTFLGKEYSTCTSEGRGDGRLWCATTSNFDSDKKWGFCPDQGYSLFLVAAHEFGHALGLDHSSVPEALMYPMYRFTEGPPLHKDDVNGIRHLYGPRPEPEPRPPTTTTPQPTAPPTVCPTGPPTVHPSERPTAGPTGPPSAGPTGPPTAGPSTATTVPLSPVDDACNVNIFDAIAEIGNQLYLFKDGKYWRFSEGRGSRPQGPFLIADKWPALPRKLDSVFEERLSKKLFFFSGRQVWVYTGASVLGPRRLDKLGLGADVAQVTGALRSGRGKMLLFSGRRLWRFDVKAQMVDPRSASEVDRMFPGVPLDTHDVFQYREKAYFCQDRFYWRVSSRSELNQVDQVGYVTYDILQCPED

Molecule | Ki (MMP-9 [1]) | Ki (MMP-2 [2]) | melting point | Ki (MMP-7) | Ki (MMP-3) | Ki (MMP-1) | Ki (MMP-2 [3]) | Ki (MMP-9 [4]) | Ki (MMP-2 [2]; Ki)
O=S(=O)(CCCC1CS1)c1ccc(Oc2ccccc2)cc1 (stereo not shown) [Compound 3, 3-(4-Phenoxyphenylsulfonyl)propylthiirane] | 181 ± 41 µM | 4.3 ± 0.7 µM | 75 to 76 °C | > 130 µM | > 130 µM | > 130 µM | – | – | –
TIMP-1: endogenous cellular protein inhibitor of MMPs (tissue inhibitor for matrix metalloproteinases) | – | – | – | – | – | – | 0.029 ± 0.005 µM | 0.024 ± 0.004 µM | –
O=S(=O)(CCC1CS1)c1ccc(Oc2ccccc2)cc1 (stereo not shown) [Compound 2, 2-(4-Phenoxyphenylsulfonyl)ethylthiirane] | 44 ± 5 µM | 4.7 ± 0.7 µM | 99 to 101 °C | > 130 µM | > 130 µM | > 130 µM | – | – | –
O=S(=O)(CCCC1CO1)c1ccc(Oc2ccccc2)cc1 (stereo not shown) [Compound 6, 3-(4-Phenoxyphenylsulfonyl)propyloxirane] | 75 ± 6 µM | – | – | > 130 µM | > 130 µM | > 130 µM | – | – | 10.7 ± 0.6 µM
O=S(=O)(CCC1CO1)c1ccc(Oc2ccccc2)cc1 (stereo not shown) [Compound 5, 2-(4-Phenoxyphenylsulfonyl)ethyloxirane] | 102 ± 2 µM | – | 75 to 77 °C | > 130 µM | > 130 µM | > 130 µM | – | – | 5.1 ± 0.5 µM
O=S(=O)(CC1CO1)c1ccc(Oc2ccccc2)cc1 (stereo not shown) [Compound 4, (4-Phenoxyphenylsulfonyl)methyloxirane] | 186 ± 11 µM | – | 50 to 51 °C | > 130 µM | > 130 µM | > 130 µM | – | – | 25 ± 2 µM
